Results as given in the supplement of paper PMC10307832.

Assays:
Assay in all cases: relative viability (nuclei count vs DMSO), 5 days (fraction); higher = more cells survive
Ibrutinib + Dasatinib = compound: C=CC(=O)N1CCC[C@@H](n2nc(-c3ccc(Oc4ccccc4)cc3)c3c(N)ncnc32)C1 [Ibrutinib] + Cc1nc(Nc2ncc(C(=O)Nc3c(C)cccc3Cl)s2)cc(N2CCN(CCO)CC2)n1 [Dasatinib] (partner 0.075 µM)
Procedure, shortened: (§1)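 One day after seeding in 1536-well plates, lung cancer cell lines were dosed by pin tool. Dosing was either single-drug or a fixed anchor-drug dose plus five library-drug doses (not always all listed) in √10 steps. After 5 days, nuclei were stained in one fix-and-stain step and counted on 4× images, and relative viability is the nuclei count of treated wells over that of vehicle wells, given as the median of duplicate plates.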

BMX-IN-1 + Tozasertib = compound: C=CC(=O)Nc1cc(-n2c(=O)ccc3cnc4ccc(-c5ccc(NS(C)(=O)=O)cc5)cc4c32)ccc1C [BMX-IN-1] + Cc1cc(Nc2cc(N3CCN(C)CC3)nc(Sc3ccc(NC(=O)C4CC4)cc3)n2)n[nH]1 [Tozasertib] (partner 0.1 µM)
Procedure, shortened: as §1

PAC-1 + Lapatinib = compound: C=CCc1cccc(/C=N/NC(=O)CN2CCN(Cc3ccccc3)CC2)c1O [PAC-1] + CS(=O)(=O)CCNCc1ccc(-c2ccc3ncnc(Nc4ccc(OCc5cccc(F)c5)c(Cl)c4)c3c2)o1 [Lapatinib] (partner 2 µM)
Procedure, shortened: as §1

PAC-1 + Crizotinib = compound: C=CCc1cccc(/C=N/NC(=O)CN2CCN(Cc3ccccc3)CC2)c1O [PAC-1] + C[C@@H](Oc1cc(-c2cnn(C3CCNCC3)c2)cnc1N)c1c(Cl)ccc(F)c1Cl [Crizotinib] (partner 1 µM)
Procedure, shortened: as §1

In the case of NCI-H358, the relative viability (Ibrutinib + Dasatinib; first compound 0.005 µM) is reported as 0.149, the relative viability (Ibrutinib + Dasatinib; first compound 0.05 µM) is reported as 0.136 and the relative viability (Ibrutinib + Dasatinib; first compound 0.1581 µM) is reported as 0.152. It also gave a relative viability (Ibrutinib + Dasatinib; first compound 0.5 µM) of 0.0966, a relative viability (BMX-IN-1 + Tozasertib; first compound 0.02 µM) of 0.112 and a relative viability (BMX-IN-1 + Tozasertib; first compound 0.2 µM) of 0.108. The relative viability (BMX-IN-1 + Tozasertib; first compound 0.6325 µM) was 0.104, the relative viability (BMX-IN-1 + Tozasertib; first compound 2 µM) was 0.11 and the relative viability (PAC-1 + Lapatinib; first compound 0.02 µM) was 0.473. The relative viability (PAC-1 + Lapatinib; first compound 0.06325 µM) was 0.525, the relative viability (PAC-1 + Lapatinib; first compound 0.2 µM) was 0.477 and the relative viability (PAC-1 + Lapatinib; first compound 2 µM) was 0.388. It also gave a relative viability (PAC-1 + Crizotinib; first compound 0.02 µM) of 0.552, a relative viability (PAC-1 + Crizotinib; first compound 0.06325 µM) of 0.531 and a relative viability (PAC-1 + Crizotinib; first compound 0.2 µM) of 0.751. For the same cell line, the relative viability (PAC-1 + Crizotinib; first compound 2 µM) was 0.453.
NCI-H460 was tested, and the relative viability (Ibrutinib + Dasatinib; first compound 0.005 µM) was 0.548, the relative viability (Ibrutinib + Dasatinib; first compound 0.01581 µM) was 0.42 and the relative viability (Ibrutinib + Dasatinib; first compound 0.05 µM) was 0.491. For the same cell line, the relative viability (Ibrutinib + Dasatinib; first compound 0.1581 µM) was 0.286, the relative viability (Ibrutinib + Dasatinib; first compound 0.5 µM) was 0.603 and the relative viability (BMX-IN-1 + Tozasertib; first compound 0.02 µM) was 0.525. It also gave a relative viability (BMX-IN-1 + Tozasertib; first compound 0.2 µM) of 0.796, a relative viability (BMX-IN-1 + Tozasertib; first compound 0.6325 µM) of 0.531 and a relative viability (BMX-IN-1 + Tozasertib; first compound 2 µM) of 0.569. For the same cell line, the relative viability (PAC-1 + Lapatinib; first compound 0.02 µM) was 1.01, the relative viability (PAC-1 + Lapatinib; first compound 0.06325 µM) was 1.01 and the relative viability (PAC-1 + Lapatinib; first compound 0.2 µM) was 0.916. The relative viability (PAC-1 + Lapatinib; first compound 2 µM) was 0.942, the relative viability (PAC-1 + Crizotinib; first compound 0.02 µM) was 0.887 and the relative viability (PAC-1 + Crizotinib; first compound 0.06325 µM) was 0.805. The relative viability (PAC-1 + Crizotinib; first compound 0.2 µM) was 0.823 and the relative viability (PAC-1 + Crizotinib; first compound 2 µM) was 1.07.
Work on NCI-H520 yielded a relative viability (Ibrutinib + Dasatinib; first compound 0.005 µM) of 0.192, a relative viability (Ibrutinib + Dasatinib; first compound 0.05 µM) of 0.183 and a relative viability (Ibrutinib + Dasatinib; first compound 0.1581 µM) of 0.237. The relative viability (Ibrutinib + Dasatinib; first compound 0.5 µM) was 0.132, the relative viability (BMX-IN-1 + Tozasertib; first compound 0.02 µM) was 0.494 and the relative viability (BMX-IN-1 + Tozasertib; first compound 0.2 µM) was 0.451. It also gave a relative viability (BMX-IN-1 + Tozasertib; first compound 0.6325 µM) of 0.43, a relative viability (BMX-IN-1 + Tozasertib; first compound 2 µM) of 0.429 and a relative viability (PAC-1 + Lapatinib; first compound 0.02 µM) of 0.733. For the same cell line, the relative viability (PAC-1 + Lapatinib; first compound 0.06325 µM) was 0.976, the relative viability (PAC-1 + Lapatinib; first compound 0.2 µM) was 0.637 and the relative viability (PAC-1 + Lapatinib; first compound 2 µM) was 0.779. For the same cell line, the relative viability (PAC-1 + Crizotinib; first compound 0.02 µM) was 0.772, the relative viability (PAC-1 + Crizotinib; first compound 0.06325 µM) was 0.746 and the relative viability (PAC-1 + Crizotinib; first compound 0.2 µM) was 0.735. It also gave a relative viability (PAC-1 + Crizotinib; first compound 2 µM) of 0.698.
For NCI-H596, the relative viability (Ibrutinib + Dasatinib; first compound 0.01581 µM) was 0.545, the relative viability (Ibrutinib + Dasatinib; first compound 0.05 µM) was 0.579 and the relative viability (Ibrutinib + Dasatinib; first compound 0.1581 µM) was 0.5. The relative viability (Ibrutinib + Dasatinib; first compound 0.5 µM) was 0.564, the relative viability (BMX-IN-1 + Tozasertib; first compound 0.02 µM) was 1.07 and the relative viability (BMX-IN-1 + Tozasertib; first compound 0.2 µM) was 0.932. The relative viability (BMX-IN-1 + Tozasertib; first compound 0.6325 µM) was 0.819, the relative viability (BMX-IN-1 + Tozasertib; first compound 2 µM) was 0.959 and the relative viability (PAC-1 + Lapatinib; first compound 0.02 µM) was 1.04. For the same cell line, the relative viability (PAC-1 + Lapatinib; first compound 0.06325 µM) was 1.03, the relative viability (PAC-1 + Lapatinib; first compound 0.2 µM) was 1.01 and the relative viability (PAC-1 + Lapatinib; first compound 2 µM) was 1.05. It also gave a relative viability (PAC-1 + Crizotinib; first compound 0.02 µM) of 0.974, a relative viability (PAC-1 + Crizotinib; first compound 0.06325 µM) of 0.952 and a relative viability (PAC-1 + Crizotinib; first compound 0.2 µM) of 0.98. For the same cell line, the relative viability (PAC-1 + Crizotinib; first compound 2 µM) was 1.07.
Cell Line NCI-H647 has a relative viability (Ibrutinib + Dasatinib; first compound 0.01581 µM) of 0.164, a relative viability (Ibrutinib + Dasatinib; first compound 0.05 µM) of 0.167 and a relative viability (Ibrutinib + Dasatinib; first compound 0.1581 µM) of 0.206. For the same cell line, the relative viability (Ibrutinib + Dasatinib; first compound 0.5 µM) was 0.174, the relative viability (BMX-IN-1 + Tozasertib; first compound 0.02 µM) was 0.283 and the relative viability (BMX-IN-1 + Tozasertib; first compound 0.2 µM) was 0.0553. The relative viability (BMX-IN-1 + Tozasertib; first compound 0.6325 µM) was 0.394, the relative viability (BMX-IN-1 + Tozasertib; first compound 2 µM) was 0.232 and the relative viability (PAC-1 + Lapatinib; first compound 0.02 µM) was 0.851. It also gave a relative viability (PAC-1 + Lapatinib; first compound 0.06325 µM) of 1.05, a relative viability (PAC-1 + Lapatinib; first compound 0.2 µM) of 0.866 and a relative viability (PAC-1 + Lapatinib; first compound 2 µM) of 0.934. It also gave a relative viability (PAC-1 + Crizotinib; first compound 0.02 µM) of 1.06, a relative viability (PAC-1 + Crizotinib; first compound 0.06325 µM) of 1.12 and a relative viability (PAC-1 + Crizotinib; first compound 0.2 µM) of 1.03. It also gave a relative viability (PAC-1 + Crizotinib; first compound 2 µM) of 0.812.
